Counter-ions that a name gives are not always drawn. Like-named read-outs stand apart in the source and are kept apart here.

Experimental findings from US20180305299A1, “N-(2-FLUORO-2-PHENETHYL)CARBOXAMIDES AS NEMATICIDES AND ENDOPARASITICIDES” (priority 2013, published 2018) are described below.

One data set can be described thus: log P (HPLC-MS). It is filed as physicochemical.
Data set [1] has as its system Meloidogyne incognita. The data set can be described thus: Meloidogyne incognita test (MELGIN), gall formation, solvent acetone. It is filed as in vivo. Particulars: application rate 20 ppm; after 14 days. As to the method: (§1) Meloidogyne incognita—Test (MELGIN)
To produce a suitable preparation of active compound, 1 part by weight of active compound is mixed with the stated amount of solvent, and the concentrate is diluted with water to the desired concentration.
Vessels are filled with sand, a solution of the active ingredient, a suspension containing eggs and larvae of the southern root-knot nematode (Meloidogyne incognita) and salad seeds. The salad seeds germinate and the seedlings grow. Galls develop in the roots.
After 14 days the nematicidal activity is determined on the basis of the percentage of gall formation. 100% means that no galls were found; 0% means that the number of galls found on the roots of the treated plants was equal to that in untreated control plants.

The next data set deals with Haemonchus contortus. In words: Haemonchus contortus test (HAEMCO), larval mortality. The note with it: 120 h; for mortality at 20 ppm: application rate 20 ppm, after 5 days, read-out: activity (larval mortality, efficacy); for Emax at 0.8 ppm: 5 dat, read-out: % Efficacy HAEMCO. As to the method:
Haemonchus contortus—Test (HAEMCO)
(§2) Solvent: dimethyl sulfoxide
(§3) To produce a suitable preparation of active compound, 10 mg of active compound are dissolved in 0.5 ml solvent, and the concentrate is diluted with “Ringer's solution” to the desired concentration.
Approximately 40 larvae of the red stomach worm (Haemonchus contortus) are transferred into a test tube containing compound solution.
After 5 days percentage of larval mortality are recorded. 100% efficacy means all larvae are killed, 0% efficacy means no larvae are killed.
Haemonchus contortus—Test (HAEMCO) Solvent: dimethyl sulfoxide

The test system of data set [2] is Heligmosomoides polygyrus. In words: Heligmosomoides polygyrus/mouse in vivo efficacy test. The note with it: mice; oral; four consecutive days during early patency; dose not given. As to the method: Heligmosomoides polygyrus/mouse
Mice, experimentally infected by Heligmosomoides polygyrus, were treated on four consecutive days during early patency. Test compounds were formulated as solutions or suspensions and applied orally.
Efficacy was determined as reduction of worm count in the intestine after necropsy compared to worm count in an infected and placebo-treated control group.

Another data set deals with Cooperia curticei. The data set can be described thus: Cooperia curticei test (COOPCU), larval mortality. Particulars: 120 h; for Emax at 0.8 ppm: read-out: % Efficacy COOPCU; for mortality at 20 ppm: read-out: activity (larval mortality, efficacy). As to the method: Cooperia curticei—Test (COOPCU)
as §2, §3
Approximately 40 nematode larvae (Cooperia curticei) are transferred into a test tube containing the compound solution.
After 5 days percentage of larval mortality is recorded. 100% efficacy means all larvae are killed; 0% efficacy means no larvae are killed.
Cooperia curticei—Test (COOPCU) Solvent: dimethyl sulfoxide

In data set [3] the test system is Meloidogyne incognita. In words: Meloidogyne incognita test (MELGIN), comparison example, solvent dimethylformamide with emulsifier. Particulars: 504 h, 21 dat, read-out: % Efficacy MELGIN. It is filed as in vivo. As to the method: as §1
To produce a suitable preparation of active compound, 1 part by weight of active compound is mixed with the stated amount of solvent, and the concentrate is diluted with emulsifier-containing water to the desired concentration.
Vessels are filled with sand, a solution of the active ingredient, a suspension containing eggs and larvae of Meloidogyne incognita and salad seeds. The salad seeds germinate and the seedlings grow. Galls develop on the roots.
After the specified period of time the nematicidal activity is determined on the basis of the percentage of gall formation. 100% means that no galls were found; 0% means that the number of galls found on the roots of the treated plants was equal to that in untreated control plants.

For `CC(F)(CNC(=O)c1ccccc1C(F)(F)F)c1ccc(Cl)cc1Cl` (stereo not drawn) [Example 1-406, N-[2-(2,4-dichlorophenyl)-2-fluoropropyl]-2-(trifluoromethyl)benzamide], the chromatographic logP (in general, a lipophilicity value derived from retention on a column) in the data set “log P (HPLC-MS)” stood at 3.7. In the data set on Meloidogyne incognita [1], the “activity (nematicidal, gall formation)” value was found to be 100%.

As for `O=C(NCC(F)c1ccccc1C(F)(F)F)c1ccccc1C(F)(F)F` (stereo not drawn) [Example 1-399, N-{2-fluoro-2-[2-(trifluoromethyl)phenyl]ethyl}-2-(trifluoromethyl)benzamide], the mortality (as a rule, the share of the test organisms that died) at 20 ppm with Haemonchus contortus is 100%.

In the case of `O=C(NCC(F)(F)c1ccc(Cl)cc1Cl)c1ccccc1C(F)(F)F` [Example 1-1, N-[2-(2,4-dichlorophenyl)-2,2-difluoroethyl]-2-(trifluoromethyl)benzamide], in data set [2], the “activity (reduction of worm count in the intestine vs placebo-treated control)” value is reported as 65%. In addition, the “activity (nematicidal, gall formation)” value in the data set with Meloidogyne incognita [1] was found to be 100%. Also, in the data set with Haemonchus contortus, the Emax at 0.8 ppm was 100% and the mortality at 20 ppm is 100%. Further, in the data set on Cooperia curticei, the Emax at 0.8 ppm came out at 100% and the mortality at 20 ppm is 100%. The Emax at 2 ppm in the data set on Meloidogyne incognita [3] came to 95%.

In the case of `CC(Cc1ccc(Cl)cc1Cl)NC(=O)c1ccccc1C(F)(F)F` (stereo not drawn) [Example 1-32 known from WO-A 2012/118139, reference compound], the Emax at 0.8 ppm in the data set with Haemonchus contortus is 80%; in the data set on Cooperia curticei (0.8 ppm, 5 dat) it was 0%. Further, the Emax at 2 ppm in the data set on Meloidogyne incognita [3] stood at 15%.

On to `CC(F)(CNC(=O)c1ccccc1C(F)(F)F)c1ccc(Cl)cc1Cl` (stereo not drawn) [Example 1-393, N-[2-(2,4-dichlorophenyl)-2-fluoropropyl]-2-(trifluoromethyl)benzamide], for which the “activity (nematicidal, gall formation)” value in the data set with Meloidogyne incognita [1] turned out to be 100%. Further, the mortality at 20 ppm in the data set on Haemonchus contortus and in the data set on Cooperia curticei was 100% in each case.

With `CC(F)(CN)c1ccc(Cl)cc1Cl` (stereo not drawn) [2-(2,4-dichlorophenyl)-2-fluoropropan-1-amine hydrochloride], the chromatographic logP in the data set “log P (HPLC-MS)” is 0.89.

As for `O=C(NCC(F)c1ccccc1Cl)c1ccccc1C(F)(F)F` (stereo not drawn) [Example 1-400, N-[2-(2-chlorophenyl)-2-fluoroethyl]-2-(trifluoromethyl)benzamide], in the data set with Haemonchus contortus, the mortality at 20 ppm is 100%.
